Source: patent US5514694A, “Peptidyl ketoamides” (Georgia Tech Research Corp, priority 1993, dated 1996)
Where two headings read alike, the source gives them in different places.

What was measured:
Format in all cases: biochemical
[1] = target: T1, Calpain I from human erythrocytes (Homo sapiens, UniProt P07384); test: Calpain I inhibition, Suc-Leu-Tyr-AMC hydrolysis (KI); conditions: read-out: KI Cal I
T1 construct: Calpain I was purified from human erythrocytes; from tissue; host or cells: human erythrocytes
T1 sequence (P07384 1-714): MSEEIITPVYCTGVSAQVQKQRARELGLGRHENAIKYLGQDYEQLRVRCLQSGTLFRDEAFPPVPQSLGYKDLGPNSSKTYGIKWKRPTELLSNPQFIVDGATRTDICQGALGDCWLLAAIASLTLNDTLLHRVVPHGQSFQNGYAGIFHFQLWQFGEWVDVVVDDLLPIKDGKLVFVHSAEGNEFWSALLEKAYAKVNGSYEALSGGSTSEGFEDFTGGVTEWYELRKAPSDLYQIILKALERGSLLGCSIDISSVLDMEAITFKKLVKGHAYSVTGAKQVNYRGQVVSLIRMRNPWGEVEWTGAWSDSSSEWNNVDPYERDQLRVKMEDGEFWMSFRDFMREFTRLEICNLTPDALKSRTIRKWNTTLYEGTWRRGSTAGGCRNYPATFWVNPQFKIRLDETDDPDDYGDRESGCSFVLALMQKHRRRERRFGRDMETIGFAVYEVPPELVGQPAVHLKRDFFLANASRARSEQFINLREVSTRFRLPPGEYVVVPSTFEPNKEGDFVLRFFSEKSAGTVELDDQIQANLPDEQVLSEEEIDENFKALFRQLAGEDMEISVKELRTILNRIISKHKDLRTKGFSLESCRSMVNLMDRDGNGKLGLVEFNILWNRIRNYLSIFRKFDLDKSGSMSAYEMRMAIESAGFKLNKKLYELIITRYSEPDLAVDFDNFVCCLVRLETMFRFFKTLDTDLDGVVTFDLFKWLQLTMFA
T1 sequence (P04632 1-268 partner): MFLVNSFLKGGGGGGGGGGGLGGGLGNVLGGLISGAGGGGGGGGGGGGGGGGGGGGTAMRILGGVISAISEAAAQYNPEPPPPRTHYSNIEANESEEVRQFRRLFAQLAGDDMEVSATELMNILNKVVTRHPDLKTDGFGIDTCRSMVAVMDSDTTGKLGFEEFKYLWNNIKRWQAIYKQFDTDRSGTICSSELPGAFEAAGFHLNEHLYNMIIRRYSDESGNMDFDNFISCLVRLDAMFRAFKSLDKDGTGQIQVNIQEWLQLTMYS
Outline: (§1)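 Reversible KI values came from Lineweaver-Burk or Dixon plots of rates at varied substrate and inhibitor (in Me2SO) levels, with reactions started by enzyme. Calpains (human erythrocyte I, rabbit muscle II) hydrolysed Suc-Leu-Tyr-AMC in 25 mM Tris pH 8.0, 10 mM CaCl2 (ex 380/em 460 nm). Cathepsin B used Bz-Phe-Val-Arg-pNA (20 mM acetate pH 5.2, 0.5 mM DTT) or Z-Arg-Arg-AFC.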

[2] = target: T2, Human leukocyte cathepsin G (Homo sapiens, UniProt P08311); test: Cathepsin G inhibition, Suc-Val-Pro-Phe-NA hydrolysis; conditions: for IC50: Table 4, Z-Leu--AA--CONH-R
T2 sequence (P08311 21-255): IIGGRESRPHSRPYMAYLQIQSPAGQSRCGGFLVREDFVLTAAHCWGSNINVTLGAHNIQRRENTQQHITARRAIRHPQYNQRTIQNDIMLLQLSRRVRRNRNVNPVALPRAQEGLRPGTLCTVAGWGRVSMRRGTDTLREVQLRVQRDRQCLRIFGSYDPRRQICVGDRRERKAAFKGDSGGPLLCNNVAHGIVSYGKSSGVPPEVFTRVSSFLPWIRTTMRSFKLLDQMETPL
Method: (§2) Peptide α-ketoamides were assayed as reversible enzyme inhibitors. Various concentrations of inhibitors in Me2 SO were added to the assay mixture which contained buffer and substrate. The reaction was started by the addition of the enzyme and the hydrolysis rates were followed spectrophotometrically or fluorimetrically.
(§3) A 0.1M Hepes, 0.5M NaCl, pH 7.5 buffer was utilized for human leukocyte elastase (HLE), porcine pancreatic elastase (PPE), chymotrypsin and cathepsin G. A 0.1 Hepes, 0.01 M CaCl2, pH 7.5 buffer was utilized for trypsin, plasmin, and coagulation enzymes. A 50 mM Tris.HCl, 2 mM EDTA, 5 mM cysteine, pH 7.5 was used as a buffer for papain. A 88 mM KH2 PO4, 12 mM Na2 HPO4, 1.33 mM EDTA, 2.7 mM cysteine, pH 6.0 solution was used as a buffer for cathepsin B. A 20 mM Hepes, 10 mM CaCl2, 10 mM mercatoethanol, pH 7.2 buffer was utilized for calpain I and calpain II.
(§4) HLE and PPE were assayed with MeO-Suc-Ala-Ala-Pro-Val-NA and Suc-Ala-Ala-Ala-NA, respectively Nakajima et al., J. Biol. Chem. 254, 4027-4032 (1979); incorporated herein by reference!. Human leukocyte cathepsin G and chymotrypsin Aα were assayed with Suc-Val-Pro-Phe-NA Tanaka et al., Biochemistry 24, 2040-2047 (1985); incorporated herein by reference!. The hydrolysis of peptide 4-nitroanilides was measured at 410 nm ε410 =8800 M^-1 cm^-1; Erlanger et al., Arch. Biochem. Biophys. 95, pp 271-278 (1961); incorporated herein by reference!. Trypsin, thrombin, human plasma kallikrein, porcine pancreatic kallikrein, human factor XIa, and human plasmin were assayed with Z-Arg-SBzl or Z-Gly-Arg-SBu-i McRae et al., Biochemistry 20, 7196-7206 (1981); incorporated herein by reference!. All peptide thioester hydrolysis rates were measured with assay mixtures containing 4,4'-dithiodipyridine ε324 =19800 M^-1 cm^-1; Grasetti & Murray, Arch. Biochem. Biophys. 119, 41-49 (1967); incorporated herein by reference!.

[3] = target: T3, human leukocyte elastase (HLE) (Homo sapiens, UniProt P08246); test: HLE inhibition, MeO-Suc-Ala-Ala-Pro-Val-NA hydrolysis; conditions: for IC50: Table 4, Z-Leu--AA--CONH-R; for Ki: Table 4, in brackets under the IC50
T3 sequence (P08246 30-267): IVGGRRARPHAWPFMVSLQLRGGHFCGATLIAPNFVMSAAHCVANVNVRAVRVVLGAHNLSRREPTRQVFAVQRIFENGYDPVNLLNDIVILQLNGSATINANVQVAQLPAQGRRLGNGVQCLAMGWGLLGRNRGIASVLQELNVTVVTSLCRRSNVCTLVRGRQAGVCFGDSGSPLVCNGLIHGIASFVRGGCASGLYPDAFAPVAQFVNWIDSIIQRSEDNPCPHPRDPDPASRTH
Method: as §2, §3, §4

cathepsin B = target: T4, cathepsin B (Homo sapiens, UniProt P07858); test: Cathepsin B inhibition (KI); conditions: Table 2, Z-Leu--AA--CONH--CH2 CH(OH)-R; read-out: KI Cat B
T4 construct: purchased Sigma
Method: HEPES, heparin, and A23187 were obtained from Calbiochem. Suc-Leu-Tyr-AMC and chromogenic substrates were obtained from Sigma. Calpain I was purified from human erythrocytes according to the method of Kitahara (Kitahara et al., J. Biochem. 95, 1759-1766) omitting the Blue-Sepharose step. Calpain II from rabbit muscle and cathepsin B were purchased from Sigma. Papain was purchased from Calbiochem.
as §2
Calpain I from human erythrocytes and calpain II from rabbit were assayed using Suc-Leu-Tyr-AMC Sasaki et al., J. Biol. Chem. 259, 12489-12494 (1984); incorporated herein by reference!, and the AMC (7-amino-4-methylcoumarin) release was followed fluorimetrically (excitation at 380 nm, and emmision at 460 nm). Calpains were assayed in 25 mM Tris pH=8.0, 10 mM CaC12. Fluorescence was followed using a Gilson FL-1A fluorometer or a Perkin-Elmer 203 Fluorescence spectrometer. Cathepsin B was assayed in 20 mM sodium acetate pH=5.2, 0.5 mM dithiothreitol using Bz-Phe-Val-Arg-p-nitroanilide as substrate. Alternately, cathepsin B was assayed with Z-Arg-Arg-AFC Barrett and Kirschke, Methods Enzymol. 80, 535-561 (1981); incorporated herein by reference!, and the AFC (7-amino-4-trifluoromethylcoumarin) release was followed fluorimetrically (excitation at 400 nm and emmision at 505 nm). Papain was assayed in 100 mM KPO4, 1 mM EDTA, 2.5 mM cysteine pH=6.0 using Bz-Arg-AMC or Bz-Arg-NA Kanaoka et al., Chem. Pharm. Bull. 25, 3126-3128 (1977); incorporated herein by reference! as a substrate. The AMC (7-amino-4-methylcoumarin) release was followed fluorimetrically (excitation at 380 nm, and emmision at 460 nm). Enzymatic hydrolysis rates were measured at various substrate and inhibitor concentrations, and KI values were determined by either Lineweaver-Burk plots or Dixon plots.
as §3

calpain II from rabbit = test: Calpain II inhibition, Suc-Leu-Tyr-AMC hydrolysis (KI); conditions: Table 2, Z-Leu--AA--CONH--CH2 CH(OH)-R; read-out: KI Cal II
Outline: as §1

[4] = Table 2, Z-Leu--AA--CONH--CH2 CH(OH)-R

Ki [1, 4] | IC50 [2] | IC50 [3] | Ki [3] | Ki ([1]; Table 1, Z-Leu--AA--CONHR) | Ki (cathepsin B) | Ki (calpain II from rabbit) | Ki ([2]; Table 4, in brackets under the IC50, read-out: KI Cat G) | Molecule
330 nM | > 204 µM | 18 µM | 19 µM | – | – | – | – | CC[C@H](NC(=O)[C@H](CC(C)C)NC(=O)OCc1ccccc1)C(=O)C(=O)NCC(O)c1ccc(N(C)C)cc1 (stereo partly drawn) [Z-Leu-Abu-CONH--CH2 CH(OH)C6 H4 (4-N(CH3)2)]
350 nM | > 204 µM | 11 µM | 9 µM | – | – | – | – | CCC(NC(=O)C(CC(C)C)NC(=O)OCc1ccccc1)C(=O)C(=O)NCC(O)c1cccc(C(F)(F)F)c1 (stereo not drawn) [Z-Leu-Abu-CONH-CH2 CH(OH)-C6 H4 (3-CF3), Z-Leu-Abu-CONH--CH2 CH(OH)C6 H4 (3-CF3)]
– | 136 µM | > 222 µM | – | 220 nM | – | – | – | CC(C)CC(NC(=O)OCc1ccccc1)C(=O)NC(Cc1ccccc1)C(=O)C(=O)NCCCN1CCOCC1 (stereo not drawn) [Z-Leu-Phe-CONH-(CH2)3 -4-morpholinyl, Z-Leu-Phe-CONH--(CH2)3 -4-Morpholinyl]
620 nM | 58 µM | 28 µM | – | – | – | – | – | CC(C)C[C@H](NC(=O)OCc1ccccc1)C(=O)N[C@@H](Cc1ccccc1)C(=O)C(=O)NCC(O)c1ccc(N(C)C)cc1 (stereo partly drawn) [Z-Leu-Phe-CONH--CH2 CH(OH)C6 H4 (4-N(CH3)2)]
180 nM | 80 µM | 70 µM | – | – | – | – | – | CC(C)C[C@H](NC(=O)OCc1ccccc1)C(=O)N[C@@H](Cc1ccccc1)C(=O)C(=O)NCC(O)c1cccc(Oc2cccc(C(F)(F)F)c2)c1 (stereo partly drawn) [Z-Leu-Phe-CONH--CH2 CH(OH)C6 H4 -3-OC6 H4 (3-CF3)]
1300 nM | 102 µM | 44 µM | – | – | 2100 nM | 50 nM | – | CC(C)C[C@H](NC(=O)OCc1ccccc1)C(=O)N[C@@H](Cc1ccccc1)C(=O)C(=O)NCC(O)c1ccccc1 (stereo partly drawn) [Z-Leu-Phe-CONH-CH2 CH(OH)-Ph, Z-Leu-Phe-CONH--CH2 CH(OH)Ph]
– | 68 µM | 16 µM | 11 µM | – | – | – | 4.9 µM | CCCCNC(=O)C(=O)C(Cc1ccccc1)NC(=O)C(CC(C)C)NC(=O)OCc1ccccc1 (stereo not drawn) [Z-Leu-Phe-CONH-n-Bu]
– | 65 µM | 44 µM | – | – | – | – | – | CCCNC(=O)C(=O)C(Cc1ccccc1)NC(=O)C(CC(C)C)NC(=O)OCc1ccccc1 (stereo not drawn) [Z-Leu-Phe-CONH-n-Pr]
– | 128 µM | 50 µM | – | – | – | – | – | CCC(C)NC(=O)C(=O)C(Cc1ccccc1)NC(=O)C(CC(C)C)NC(=O)OCc1ccccc1 (stereo not drawn) [Z-Leu-Phe-CONH-sec-Bu]
– | > 102 µM | 32 µM | – | – | – | – | – | Z-Leu-Phe-CONH--CH2 CH(OH)C6 H4 (4-OPh) [Z-Leu-Phe-CONH-CH2 CH(OH)-C6 H4 (4-OPh)]
